Assays:
[1] = Transmission electron microscopy of micelles; type: physicochemical; details: 20 μM peptide or PA with or without 2.22 μM Pam2CSK4 (90/10) in PBS, Nano-W negative stain
Experimental: Solutions of 20 μM peptide or PA with or without 2.22 μM Pam2CSK4 were prepared in PBS from which 5 μL was pipetted onto a carbon-coated copper transmission electron microscopy (TEM) grid and incubated for 3–5 min before excess solution was wicked away using filter paper. Then, 5 μL Nano-W (2% methylamine tungstate) was pipetted on the grid and incubated for 3–5 min before being removed by wicking. Grids were imaged using a JEOL JEM-1400 Transmission Electron Microscope (Tokyo, Japan) at 15,000× and 25,000× magnification. Micrographs of peptide or PA were compared against reference micrographs of Nano-W with or without PBS to ensure proper identification of micellar structures.

[2] = test system: bone marrow-derived dendritic cells (BMDCs); experiment: BMDC cytokine secretion (sandwich ELISA of supernatant); type: cell-based, BALB/c mice; details: 24 h treatment, 0.2 μM Pam2CSK4, supernatant ELISA
Experimental: Bone marrow was harvested from the femurs and tibias of 4-month-old BALB/c mice and red blood cells were lysed using ammonium-chloride-potassium (ACK) lysing buffer. Bone marrow cells were cultured in complete RPMI media (i.e., 10% FBS, 100 U/mL penicillin, 100 μg/mL streptomycin, and 50 μM β-mercaptoethanol) with 20 ng/mL granulocyte-macrophage colony-stimulating factor (GM-CSF) to promote differentiation into bone marrow-derived dendritic cells (BMDCs). After 10 days, BMDCs were plated in untreated 24-well plates and cultured with peptide or PA for 24 h. Supernatants were collected and stored at −20 °C for later use. BMDCs were harvested and processed for flow cytometry analysis. More specifically, cells were removed from the plate, blocked with Trustain FcX anti-mouse CD16/32 antibody (BioLegend), then stained with phycoerythrin-Cyaninine7 (PE-Cy7) anti-mouse CD11c (BioLegend), fluorescein isothiocyanate (FITC) anti-mouse CD40 (BioLegend), and allophycocyanin (APC) anti-mouse MHC II (BioLegend) before being fixed with 4% para-formaldehyde. Cells were analyzed on a BD LSR Fortessa Flow Cytometer (Franklin Lakes, NJ, USA) within 48 h after fixation. Events were gated according to the strategy shown in Figure S2, with viable samples having a “valid cells” gate of at least 45% of the total events. […]

Substance: Pam2CSK4
- Micelle morphology (TEM) [1]: mostly small spherical micelles
- IL-12/IL-23 (p40) secretion [2]: higher production
- TNF-α secretion [2]: higher production

Reference: publication PMC11597048, “M2e-Derived Peptidyl and Peptide Amphiphile Micelles as Novel Influenza Vaccines” (Pharmaceuticals, 2024)
